Experimental data: the supplement of paper PMC8612539
Converted amounts (≈) assume the structure as drawn.

Tests used:
[1] = test system: Mannheimia haemolytica; experiment: minimum inhibitory concentration (MIC)
Protocol: (§1)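 Broth microdilution MIC (Sensititre BOPO7F bovine plate, CLSI methods) of 19 antimicrobials against field isolates of P. multocida, M. haemolytica, H. somni (deep nasopharyngeal swabs) and E. coli, Enterococcus spp. (rectal swabs) from weaned dairy heifers. Incubation 16-24 h at 35 C. MIC is the lowest concentration preventing visible growth. Values with <= or > lie at the tested range limits. Trimethoprim-sulfamethoxazole is given as the trimethoprim component of a 1:19 mixture.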

[2] = test system: Enterococcus spp.; experiment: minimum inhibitory concentration (MIC)
Protocol: as §1

C=C[C@]1(C)C[C@@H](OC(=O)CSCCN(CC)CC)[C@]2(C)[C@H](C)CC[C@]3(CCC(=O)[C@H]32)[C@@H](C)[C@@H]1O [Tiamulin]
minimum inhibitory concentration [µg/mL]
Details	[1]	[2]
isolate (source animal id): 2	–	1 (≈ 2.03 µM)
isolate (source animal id): 8	8 (≈ 16.2 µM)	–
isolate (source animal id): 13	8 (≈ 16.2 µM)	–
isolate (source animal id): 18	8 (≈ 16.2 µM)	–
isolate (source animal id): 21	8 (≈ 16.2 µM)	–
isolate (source animal id): 25	32 (≈ 64.8 µM)	–
isolate (source animal id): 27	16 (≈ 32.4 µM)	–
isolate (source animal id): 28	32 (≈ 64.8 µM)	–
isolate (source animal id): 30	8 (≈ 16.2 µM)	–
isolate (source animal id): 31	32 (≈ 64.8 µM)	–
isolate (source animal id): 32	8 (≈ 16.2 µM)	–
isolate (source animal id): 34	8 (≈ 16.2 µM)	–
isolate (source animal id): 35	–	> 32
isolate (source animal id): 36	32 (≈ 64.8 µM)	–
isolate (source animal id): 37	16 (≈ 32.4 µM)	–
isolate (source animal id): 40	8 (≈ 16.2 µM)	–
isolate (source animal id): 41	8 (≈ 16.2 µM)	–
isolate (source animal id): 42	–	> 32
isolate (source animal id): 43	8 (≈ 16.2 µM)	–
isolate (source animal id): 44	–	> 32
isolate (source animal id): 46	32 (≈ 64.8 µM)	–
isolate (source animal id): 49	16 (≈ 32.4 µM)	–
isolate (source animal id): 50	32 (≈ 64.8 µM)	–
isolate (source animal id): 51	8 (≈ 16.2 µM)	–
isolate (source animal id): 52	8 (≈ 16.2 µM)	–
isolate (source animal id): 53	8 (≈ 16.2 µM)	–
isolate (source animal id): 55	8 (≈ 16.2 µM)	–
isolate (source animal id): 56	8 (≈ 16.2 µM)	–
isolate (source animal id): 57	8 (≈ 16.2 µM)	–
isolate (source animal id): 79	–	> 32
isolate (source animal id): 88	–	2 (≈ 4.05 µM)
isolate (source animal id): 91	–	2 (≈ 4.05 µM)
isolate (source animal id): 92	–	> 32
isolate (source animal id): 100	16 (≈ 32.4 µM)	–
isolate (source animal id): 103	32 (≈ 64.8 µM)	–
isolate (source animal id): 107	16 (≈ 32.4 µM)	–
isolate (source animal id): 108	16 (≈ 32.4 µM)	–
isolate (source animal id): 111	–	2 (≈ 4.05 µM)
isolate (source animal id): 112	16 (≈ 32.4 µM)	–
isolate (source animal id): 113	8 (≈ 16.2 µM)	–
isolate (source animal id): 121	32 (≈ 64.8 µM)	–
isolate (source animal id): 122	16 (≈ 32.4 µM)	> 32
isolate (source animal id): 123	8 (≈ 16.2 µM)	> 32
isolate (source animal id): 126	32 (≈ 64.8 µM)	–
isolate (source animal id): 133	8 (≈ 16.2 µM)	≤ 0.5
isolate (source animal id): 135	8 (≈ 16.2 µM)	–
isolate (source animal id): 138	32 (≈ 64.8 µM)	–
isolate (source animal id): 141	8 (≈ 16.2 µM)	–
isolate (source animal id): 142	32 (≈ 64.8 µM)	–
isolate (source animal id): 145	32 (≈ 64.8 µM)	–
isolate (source animal id): 149	8 (≈ 16.2 µM)	–
isolate (source animal id): 151	16 (≈ 32.4 µM)	–
isolate (source animal id): 152	32 (≈ 64.8 µM)	–
isolate (source animal id): 154	16 (≈ 32.4 µM)	–
isolate (source animal id): 158	–	> 32
isolate (source animal id): 159	32 (≈ 64.8 µM)	–
isolate (source animal id): 162	16 (≈ 32.4 µM)	–
isolate (source animal id): 168	–	1 (≈ 2.03 µM)
isolate (source animal id): 169	–	1 (≈ 2.03 µM)
isolate (source animal id): 170	> 32	–
isolate (source animal id): 171	16 (≈ 32.4 µM)	> 32
isolate (source animal id): 172	32 (≈ 64.8 µM)	–
isolate (source animal id): 173	> 32	–
isolate (source animal id): 175	–	> 32
isolate (source animal id): 177	–	> 32
isolate (source animal id): 179	16 (≈ 32.4 µM)	–
isolate (source animal id): 180	16 (≈ 32.4 µM)	–
isolate (source animal id): 181	–	1 (≈ 2.03 µM)
isolate (source animal id): 182	–	1 (≈ 2.03 µM)
isolate (source animal id): 183	8 (≈ 16.2 µM)	> 32
isolate (source animal id): 186	8 (≈ 16.2 µM)	–
isolate (source animal id): 187	16 (≈ 32.4 µM)	1 (≈ 2.03 µM)
isolate (source animal id): 188	8 (≈ 16.2 µM)	–
isolate (source animal id): 190	16 (≈ 32.4 µM)	1 (≈ 2.03 µM)
isolate (source animal id): 191	> 32	–
isolate (source animal id): 192	16 (≈ 32.4 µM)	–
isolate (source animal id): 194	–	> 32
isolate (source animal id): 195	–	1 (≈ 2.03 µM)
isolate (source animal id): 197	–	8 (≈ 16.2 µM)
isolate (source animal id): 201	> 32	–
isolate (source animal id): 202	> 32	–
isolate (source animal id): 209	> 32	–
isolate (source animal id): 211	32 (≈ 64.8 µM)	≤ 0.5
isolate (source animal id): 214	–	16 (≈ 32.4 µM)
isolate (source animal id): 220	32 (≈ 64.8 µM)	–
isolate (source animal id): 221	> 32	–
isolate (source animal id): 222	–	> 32
isolate (source animal id): 223	> 32	> 32
isolate (source animal id): 228	–	≤ 0.5
isolate (source animal id): 230	–	≤ 0.5
isolate (source animal id): 233	32 (≈ 64.8 µM)	–
isolate (source animal id): 235	–	≤ 0.5
isolate (source animal id): 236	–	> 32
isolate (source animal id): 237	32 (≈ 64.8 µM)	–
isolate (source animal id): 239	–	2 (≈ 4.05 µM)
isolate (source animal id): 241	> 32	≤ 0.5
isolate (source animal id): 244	–	> 32
isolate (source animal id): 246	–	> 32
isolate (source animal id): 247	–	≤ 0.5
isolate (source animal id): 250	–	> 32
isolate (source animal id): 252	32 (≈ 64.8 µM)	> 32
isolate (source animal id): 253	16 (≈ 32.4 µM)	–
isolate (source animal id): 259	16 (≈ 32.4 µM)	–
isolate (source animal id): 260	32 (≈ 64.8 µM)	–
isolate (source animal id): 262	32 (≈ 64.8 µM)	–
isolate (source animal id): 268	–	1 (≈ 2.03 µM)
isolate (source animal id): 282	32 (≈ 64.8 µM)	> 32
isolate (source animal id): 285	–	> 32
isolate (source animal id): 287	32 (≈ 64.8 µM)	–
isolate (source animal id): 288	8 (≈ 16.2 µM)	–
isolate (source animal id): 289	–	> 32
isolate (source animal id): 290	–	> 32
isolate (source animal id): 291	16 (≈ 32.4 µM)	–
isolate (source animal id): 293	32 (≈ 64.8 µM)	–
isolate (source animal id): 296	–	> 32
isolate (source animal id): 298	16 (≈ 32.4 µM)	≤ 0.5
isolate (source animal id): 299	16 (≈ 32.4 µM)	–
isolate (source animal id): 300	8 (≈ 16.2 µM)	–
isolate (source animal id): 301	–	32 (≈ 64.8 µM)
isolate (source animal id): 302	16 (≈ 32.4 µM)	–
isolate (source animal id): 304	16 (≈ 32.4 µM)	–
isolate (source animal id): 306	8 (≈ 16.2 µM)	–
isolate (source animal id): 308	8 (≈ 16.2 µM)	–
isolate (source animal id): 309	8 (≈ 16.2 µM)	–
isolate (source animal id): 310	–	> 32
isolate (source animal id): 313	32 (≈ 64.8 µM)	–
isolate (source animal id): 318	16 (≈ 32.4 µM)	–
isolate (source animal id): 320	16 (≈ 32.4 µM)	> 32
isolate (source animal id): 321	32 (≈ 64.8 µM)	–
isolate (source animal id): 323	16 (≈ 32.4 µM)	–
isolate (source animal id): 324	32 (≈ 64.8 µM)	–
isolate (source animal id): 326	> 32	–
isolate (source animal id): 328	32 (≈ 64.8 µM)	–
isolate (source animal id): 329	32 (≈ 64.8 µM)	–
isolate (source animal id): 331	–	> 32
isolate (source animal id): 333	32 (≈ 64.8 µM)	> 32
isolate (source animal id): 335	16 (≈ 32.4 µM)	–
isolate (source animal id): 338	32 (≈ 64.8 µM)	–
isolate (source animal id): 341	–	> 32
